Values of other authors as cited in patent US5648396A, “Methods for treating depression and other disorders using optically pure R (-) fluoxetine and monoamine oxidase inhibitor” (Sepracor Inc., priority 1995, dated 1997).
Entries after “also recorded” stand apart in the source; their conditions may differ.

Tests used:
[1] = racemic mixture
patients [2] = system: patients
α1 adrenergic receptors = settings: than tricyclic antidepressants; brain tissue
patients [3] = settings: in vivo
[4] = system: dopamine turnover in striatum; settings: in vivo
histaminergic receptors = settings: than tricyclic antidepressants; brain tissue
5HIAA = settings: acute effect; Wong et al. 1985
[5] = system: morning sickness during pregnancy; settings: control of morning sickness during pregnancy; suggested
[6] = suggested
[7] = L-form versus D-enantiomer
5HT1A receptor = settings: relative to effect on 5HT uptake
D1 receptor = settings: relative to effect on 5HT uptake
Feeding = settings: rel. potency R vs S, Wong et al 1988
Saccharine palatability = settings: Robertson et al 1988
D2 receptor = settings: relative to effect on 5HT uptake
HT2 receptor = settings: relative to effect on 5HT uptake
uptake of norepinephrine = settings: relative to effect on 5HT uptake
acetic acid writhing = settings: Robertson et al 1988
α2 receptor = settings: relative to effect on 5HT uptake
PCPA effect on 5HT = settings: for Duration of Inhibition of PCPA 5HT effect / Inhibition of PCPA effect on 5HT (full block): Fuller & Snoddy 1986; for Inhibition of PCPA effect on 5HT (ED50): Robertson et al 1988
5HT1 receptor = settings: relative to effect on 5HT uptake
β receptor = settings: relative to effect on 5HT uptake
[8] = system: writhing (morphine potentiation); settings: Robertson et al 1988
α1A receptor = settings: relative to effect on 5HT uptake

## CNCCC(Oc1ccc(C(F)(F)F)cc1)c1ccccc1 (racemic) [R,S-Fluoxetine]
[1]
  half-life and duration of action (in words): long half-life and long duration of action
Patients [2]; of patients treated with the drug
  drug discontinuation due to headaches, nervousness, anxiety and insomnia: 5%
Patients [2]; patients
  adverse effects (in words): produces a state of inner restlessness (akathisia); also recorded: severe anxiety leading to intense violent suicidal thoughts and self mutilation; also recorded: manic behavior; also recorded: nausea, diarrhea, drowsiness, decrease in libido, and/or sexual dysfunction
Patients [2]; versus tricyclic antidepressants
  anticholinergic and cardiovascular side effects: less anticholinergic side effects such as blurred vision, dry mouth, constipation and urinary retention; also recorded: less lowering of blood pressure, tachycardia and arrhythmias
α1 adrenergic receptors
  binding to α1 adrenergic receptors: much less potently
Patients [3]
  wait after discontinuing fluoxetine before starting treatment with an MAOI: 5-6 weeks
[4]
  dopamine turnover in striatum: affects dopamine turnover in striatum
Histaminergic receptors
  binding to histaminergic receptors: much less potently
5HIAA
  levels of the intracellular serotonin metabolite 5HIAA: rapid reduction

## O=C1CC[C@@H](N2C(=O)c3ccccc3C2=O)C(=O)N1 [D-enantiomer of thalidomide]
[5]
  sedative effect: safe and effective sedative

## O=C1CC[C@H](N2C(=O)c3ccccc3C2=O)C(=O)N1 [L-enantiomer of thalidomide]
[6]
  teratogenicity: potent teratogen

## CC(C)NC[C@H](O)COc1cccc2ccccc12 [L-form of propranolol]
[7]
  potency relative to the D-enantiomer: 100 times

## CNCC[C@@H](Oc1ccc(C(F)(F)F)cc1)c1ccccc1 [R-Fluoxetine, (-)N-methyl-3-phenyl-3-[(α,α,α-trifluoro-p-tolyl)-oxy]-propylamine]
5HT1A receptor
  affinity for 5HT1A receptor: relatively little affinity
D1 receptor
  affinity for D1 receptor: relatively little affinity
Feeding
  Inhibition of Feeding (meal fed, 2DG) (rel. potency): R < S
Saccharine palatability
  Inhibition of Saccharine palatability (ED50): 6.1 mg/kg
D2 receptor
  affinity for D2 receptor: relatively little affinity
HT2 receptor
  affinity for HT2 receptor: relatively little affinity
Uptake of norepinephrine
  affinity for the uptake of norepinephrine: relatively little affinity
Acetic acid writhing
  Inhibition of acetic acid writhing (ED50): 15.3 mg/kg
α2 receptor
  affinity for α2 receptor: relatively little affinity
PCPA effect on 5HT
  Duration of Inhibition of PCPA 5HT effect: ~ 8 hr
  Inhibition of PCPA effect on 5HT (ED50): 2.1 mg/kg
  Inhibition of PCPA effect on 5HT (full block): ~ 10 mg/kg
5HT1 receptor
  affinity for 5HT1 receptor: relatively little affinity
β receptor
  affinity for β receptor: relatively little affinity
[8]
  Inhibition of writhing (morphine potentiation; ED50): 3.6 mg/kg
α1A receptor
  affinity for α1A receptor: relatively little affinity

## CNCC[C@H](Oc1ccc(C(F)(F)F)cc1)c1ccccc1 [S-Fluoxetine]
5HT1A receptor
  affinity for 5HT1A receptor: relatively little affinity
D1 receptor
  affinity for D1 receptor: relatively little affinity
Saccharine palatability
  Inhibition of Saccharine palatability (ED50): 4.9 mg/kg
D2 receptor
  affinity for D2 receptor: relatively little affinity
HT2 receptor
  affinity for HT2 receptor: relatively little affinity
Uptake of norepinephrine
  affinity for the uptake of norepinephrine: relatively little affinity
Acetic acid writhing
  Inhibition of acetic acid writhing (ED50): 25.7 mg/kg
α2 receptor
  affinity for α2 receptor: relatively little affinity
PCPA effect on 5HT
  Duration of Inhibition of PCPA 5HT effect: > 24 h
  Inhibition of PCPA effect on 5HT (ED50): 1.2 mg/kg
  Inhibition of PCPA effect on 5HT (full block): ~ 5 mg/kg
5HT1 receptor
  affinity for 5HT1 receptor: relatively little affinity
β receptor
  affinity for β receptor: relatively little affinity
[8]
  Inhibition of writhing (morphine potentiation; ED50): 5.7 mg/kg
α1A receptor
  affinity for α1A receptor: relatively little affinity
